Assay results published in patent publication US20210255193A1, “LYSINE REACTIVE PROBES AND USES THEREOF” (The Scripps Research Institute, priority 2017, published 2021).
pIC50: −log10 of the molar value.

Columns and labels:
Format in all cases: binding
PNPO = target: T1, PNPO (Homo sapiens, UniProt Q9NVS9); assay: competitive gel-based ABPP, apparent IC50; details: read-out: apparent IC50, blockade of probe labeling of K100 in PNPO
T1 construct: Flag; expressed in transfected cells; host or cells: HEK 293T, transient transfection, soluble lysate
T1 sequence (Q9NVS9 1-261): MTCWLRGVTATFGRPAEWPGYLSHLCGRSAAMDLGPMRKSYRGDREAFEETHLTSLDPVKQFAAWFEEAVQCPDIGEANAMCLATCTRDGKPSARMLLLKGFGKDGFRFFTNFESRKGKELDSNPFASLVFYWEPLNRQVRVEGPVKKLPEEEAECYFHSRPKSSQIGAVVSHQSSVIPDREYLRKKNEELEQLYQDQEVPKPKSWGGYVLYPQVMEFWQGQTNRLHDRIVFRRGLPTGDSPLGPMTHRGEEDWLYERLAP
Procedure: (§1) Recombinant expression of proteins by transient transfection. HEK 293T cells were grown to 50% confluency in 10 ml DMEM supplemented with 10% fetal bovine serum (FBS), penicillin, streptomycin and glutamine in 10 cm tissue culture dishes. 3 μg of DNA was diluted in 500 μL DMEM and 30 μL of PEI (MW 40,000, 1 mg ml^−1, Polysciences) were added. The mixture was incubated at room temperature for 30 min and added dropwise to the cells. Cells were grown for 48 h at 37° C. with 5% CO2. Cells were washed with cold PBS, scraped with cold PBS and cell pellets were isolated by centrifugation (1,400 g, 3 min, 4° C.), and stored at −80° C. until use. Cell pellets were resuspended in PBS, lysed by sonication and fractionated (100,000 g, 45 min) to yield soluble and membrane fractions. The soluble fraction was adjusted to a final protein concentration of 1 mg ml^−1 for gel-based ABPP experiments.
(§2) Competitive gel-based ABPP and apparent IC50 values. 50 μl of soluble proteome (1 mg ml^−1) expressing the indicated protein were treated with fragment electrophiles (1 μl of 50× stock solution in DMSO) at ambient temperature for 1 h. The indicated probe (fluorophore or alkyne-containing, 1 μl of a 500 μM solution, final concentration=10 μM) was then added and allowed to react for an additional 1 h. CuAAC and in-gel fluorescence analysis were performed as described above. For quantification of inhibition and apparent IC50 determination, the percentage of labeling was determined by quantifying the integrated optical intensity of the bands using ImageLab 5.2.1 software (BioRad). Nonlinear regression analysis was used to determine the IC50 values from a dose-response curve generated using GraphPad Prism 7.

[1] = target: T2, interaction between SIN3A and TGIF1 (Homo sapiens, UniProt Q96ST3); assay: Co-IP experiment, anti-Myc western blot; details: anti-Myc blotting
T2 construct: flag-SIN3A or the indicated Flag-SIN3A mutants (a.a. 1-400), or Flag-GFP, were co-expressed in HEK 293T cells with Myc-TGIF1 or Myc-TGIF2; expressed in transfected cells; host or cells: HEK 293T
T2 sequence (Q96ST3 1-400): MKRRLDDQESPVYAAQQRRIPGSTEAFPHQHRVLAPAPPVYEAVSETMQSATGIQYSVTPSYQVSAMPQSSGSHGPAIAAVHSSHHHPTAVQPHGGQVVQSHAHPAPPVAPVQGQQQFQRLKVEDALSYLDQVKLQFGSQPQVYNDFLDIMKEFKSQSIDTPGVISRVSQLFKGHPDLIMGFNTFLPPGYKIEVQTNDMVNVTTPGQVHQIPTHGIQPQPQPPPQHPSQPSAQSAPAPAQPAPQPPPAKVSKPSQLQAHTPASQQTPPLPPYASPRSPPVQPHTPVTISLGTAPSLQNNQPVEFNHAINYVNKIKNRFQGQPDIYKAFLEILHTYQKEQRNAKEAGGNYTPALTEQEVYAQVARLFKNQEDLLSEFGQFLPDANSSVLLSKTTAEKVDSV
Procedure: (§3) Co-IP experiment for the interaction between SIN3A and TGIF1 and TGIF2. 6 cm dishes of HEK 293T cells were transfected at 40% confluency with 600 ng of FLAG-GFP, FLAG-SIN3A WT, K155W, or K155R construct, and 600 ng of MYC-TGIF1 or MYC-TGIF2 as indicated. After 48 hours, cells were lysed and enriched as described above. Following elution in 40 μL urea, 15 μL of loading buffer was added to samples. 15 μL of both input (10%) and outputs were loaded onto an SDS-PAGE gel.
(§4) Western blotting. Proteins were resolved by SDS-PAGE (3 h, 300 V) and transferred to nitrocellulose membranes (90 min, 60 V), blocked with 5% milk in TBS-T and probed with the indicated antibodies in 5% milk in TBS-T. The primary antibodies and the dilutions used are as follows: anti-Flag (Sigma Aldrich, F1804, 1:3,000), anti-Myc (Cell Signalling, 2272S, 1:5,000), anti-actin (Cell Signaling, 3700, 1:3,000) and anti-GAPDH (Santa Cruz, 32233, 1:10,000). Blots were incubated with primary antibodies overnight at 4° C. with rocking and were then washed (3×5 min, TBS-T) and incubated with secondary antibodies (LICOR, IRDye 800CW or IRDye 680LT, 1:10,000) for 1 h at ambient temperature. Blots were further washed (3×5 min, TBST) and visualized on a LICOR Odyssey Scanner. Relative band intensities were quantified using ImageJ software.

[2] = target: T3, interaction between SIN3A and TGIF2 (Homo sapiens, UniProt Q96ST3); assay: Co-IP experiment, anti-Myc western blot; details: anti-Myc blotting
T3 construct: flag-SIN3A or the indicated Flag-SIN3A mutants (a.a. 1-400), or Flag-GFP, were co-expressed in HEK 293T with Myc-TGIF2; expressed in transfected cells; host or cells: HEK 293T
T3 sequence (Q96ST3 1-400): as above
Procedure: as §3, §4

NUDT2 = target: T4, NUDT2 (Homo sapiens, UniProt P50583); assay: competitive gel-based ABPP, apparent IC50
T4 construct: expressed in transfected cells; host or cells: HEK 293T, transient transfection, soluble lysate; synthesized gene (IDT)
T4 sequence (P50583 whole entry): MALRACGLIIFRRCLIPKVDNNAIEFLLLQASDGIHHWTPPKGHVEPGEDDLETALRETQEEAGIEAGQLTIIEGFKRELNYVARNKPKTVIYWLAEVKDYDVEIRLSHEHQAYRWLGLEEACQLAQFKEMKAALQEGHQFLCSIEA
Procedure: as §1, §2

`O=C(CCc1cn(-c2ccccc2)nc1-c1ccccc1)Oc1c(F)c(F)c(F)c(F)c1F` [fragment 19, Pentafluorophenyl 3-(1,3-diphenyl-1H-pyrazol-4-yl)propanoate] was tested, and the pIC50 (PNPO) was 5.52.

For `O=C(Oc1c(F)c(F)c(F)c(F)c1F)c1cc(C(F)(F)F)cc(C(F)(F)F)c1` [fragment 21, Pentafluorophenyl 3,5-bis(trifluoromethyl)benzoate], the “co-immunoprecipitation of TGIF1 with SIN3A” value [1] was “blocked the co-immunoprecipitation of TGIF1” and the “co-immunoprecipitation of TGIF2 with SIN3A” value [2] was “partial blockade”.

For `COC(=O)NC(=NC(=O)OCC1c2ccccc2-c2ccccc21)n1cccn1` [fragment 49, N-Methoxycarbonyl-N′-9-fluorenylmethoxycarbonyl-pyrazole-1-carboxamidine], the “blockade of probe 1-labeling of K89 in NUDT2” value (NUDT2; FIG. 11G) was “quantitatively blocked” and the pIC50 (NUDT2; gel-based ABPP, read-out: apparent IC50, blockade of probe labeling of NUDT2) was 5.70.
